Laboratory results taken from ChEMBL document CHEMBL3885861, “Open TG-GATES”.

Species: Rattus norvegicus
Assay: Open TG-GATES - Regimen: Single
Type: toxicity, organism-based, Sprague-Dawley
Parameters: regimen Single, gender Male, age 6 weeks
Conditions: in vivo, po, route gavage; for APTT / Bas / Eos / Fbg / Hb / Ht / Lym / MCH / MCHC / MCV / Mono / Neu / PT / Plat / RBC / Ret / WBC: tissue Blood; for KIDNEY_L / KIDNEY_R / KIDNEY_TOTAL: tissue Kidney; for LIVER: tissue Liver; for A/G / ALP / ALT / AST / BUN / CRE / Ca / Cl / DBIL / GLC / IP / K / LDH / Na / PL / RALB / TBIL / TC / TG / TP / gamma-GTP: tissue Plasma
[1] = 0 mg/kg, 3 h, dose level Control
[2] = 0 mg/kg, 6 h, dose level Control
[3] = 0 mg/kg, 9 h, dose level Control
[4] = 0 mg/kg, 24 h, dose level Control
[5] = 100 mg/kg, 24 h, dose level Low

## O=C(O)COc1nn(Cc2ccccc2)c2ccccc12 [BENDAZAC]
[1]
  TERMINAL_BW: 211 g
  APTT: 17.2 s
  Bas: 0%
  Eos: 0.8%
  Fbg: 208.8 mg/dL
  Hb: 13.6 g/dL
  Ht: 40.7%
  Lym: 77.2%
  MCH: 21.7 pg
  MCHC: 33.3%
  MCV: 65.1 fL
  Mono: 10.4%
  Neu: 12%
  PT: 11.2 s
  Plat: 119 x10_4/uL
  RBC: 625 x10_4/ul
  Ret: 8.9%
  WBC: 108.6 x10_2/uL
  KIDNEY_L: 0.9 g
  KIDNEY_R: 1 g
  KIDNEY_TOTAL: 1.9 g
  LIVER: 10 g
  A/G: 2.2
  ALP: 955 IU/L
  ALT: 37.2 IU/L
  AST: 65.8 IU/L
  BUN: 12.4 mg/dL
  CRE: 0.5 mg/dL
  Ca: 10.9 mg/dL
  Cl: 103.8 meq/L
  DBIL: 0.008 mg/dL
  GLC: 199.4 mg/dL
  IP: 8.2 mg/dL
  K: 4.5 meq/L
  LDH: 89.4 IU/L
  Na: 139.8 meq/L
  PL: 145.4 mg/dL
  RALB: 3.7 g/dL
  TBIL: 0.3 mg/dL
  TC: 81 mg/dL
  TG: 67 mg/dL
  TP: 5.4 g/dL
  gamma-GTP: 1 IU/L
[2]
  TERMINAL_BW: 209.6 g
  APTT: 17.5 s
  Bas: 0%
  Eos: 0.8%
  Fbg: 200.2 mg/dL
  Hb: 13.9 g/dL
  Ht: 41.5%
  Lym: 77.2%
  MCH: 21.6 pg
  MCHC: 33.4%
  MCV: 64.7 fL
  Mono: 8.4%
  Neu: 13.4%
  PT: 11.7 s
  Plat: 123 x10_4/uL
  RBC: 642.4 x10_4/ul
  Ret: 10%
  WBC: 96.6 x10_2/uL
  KIDNEY_L: 1 g
  KIDNEY_R: 1 g
  KIDNEY_TOTAL: 2 g
  LIVER: 9.4 g
  A/G: 2.2
  ALP: 801.4 IU/L
  ALT: 33.2 IU/L
  AST: 59.8 IU/L
  BUN: 11.6 mg/dL
  CRE: 0.5 mg/dL
  Ca: 10.7 mg/dL
  Cl: 105.6 meq/L
  DBIL: 0.054 mg/dL
  GLC: 186.8 mg/dL
  IP: 9.6 mg/dL
  K: 4.8 meq/L
  LDH: 75.2 IU/L
  Na: 140.8 meq/L
  PL: 135.6 mg/dL
  RALB: 3.6 g/dL
  TBIL: 0.5 mg/dL
  TC: 72.6 mg/dL
  TG: 75.8 mg/dL
  TP: 5.2 g/dL
  gamma-GTP: 2 IU/L
[3]
  TERMINAL_BW: 211.9 g
  APTT: 16.6 s
  Bas: 0%
  Eos: 1.2%
  Fbg: 206.4 mg/dL
  Hb: 13.5 g/dL
  Ht: 40.3%
  Lym: 76.8%
  MCH: 22 pg
  MCHC: 33.5%
  MCV: 65.8 fL
  Mono: 9.6%
  Neu: 12.8%
  PT: 11.8 s
  Plat: 107.3 x10_4/uL
  RBC: 613.4 x10_4/ul
  Ret: 10.7%
  WBC: 98.1 x10_2/uL
  KIDNEY_L: 1 g
  KIDNEY_R: 1 g
  KIDNEY_TOTAL: 2 g
  LIVER: 9 g
  A/G: 2.1
  ALP: 700.2 IU/L
  ALT: 30 IU/L
  AST: 64.4 IU/L
  BUN: 10.8 mg/dL
  CRE: 0.6 mg/dL
  Ca: 10.6 mg/dL
  Cl: 106 meq/L
  DBIL: 0.056 mg/dL
  GLC: 197.2 mg/dL
  IP: 9.9 mg/dL
  K: 4.6 meq/L
  LDH: 75 IU/L
  Na: 143 meq/L
  PL: 134.4 mg/dL
  RALB: 3.7 g/dL
  TBIL: 0.4 mg/dL
  TC: 73.4 mg/dL
  TG: 44.2 mg/dL
  TP: 5.5 g/dL
  gamma-GTP: 1.8 IU/L
[4]
  TERMINAL_BW: 229.7 g
  APTT: 17 s
  Bas: 0%
  Eos: 1%
  Fbg: 210.8 mg/dL
  Hb: 13.5 g/dL
  Ht: 39.7%
  Lym: 77.2%
  MCH: 22.2 pg
  MCHC: 34%
  MCV: 65.2 fL
  Mono: 9.6%
  Neu: 12.4%
  PT: 12 s
  Plat: 125.1 x10_4/uL
  RBC: 609.6 x10_4/ul
  Ret: 9.8%
  WBC: 103.2 x10_2/uL
  KIDNEY_L: 1 g
  KIDNEY_R: 1 g
  KIDNEY_TOTAL: 2 g
  LIVER: 10.7 g
  A/G: 2
  ALP: 978 IU/L
  ALT: 39.8 IU/L
  AST: 67.2 IU/L
  BUN: 17.8 mg/dL
  CRE: 0.6 mg/dL
  Ca: 11 mg/dL
  Cl: 104.6 meq/L
  DBIL: 0.006 mg/dL
  GLC: 194.2 mg/dL
  IP: 7.9 mg/dL
  K: 4.8 meq/L
  LDH: 80.6 IU/L
  Na: 140.4 meq/L
  PL: 144.6 mg/dL
  RALB: 3.7 g/dL
  TBIL: 0.3 mg/dL
  TC: 77.2 mg/dL
  TG: 102 mg/dL
  TP: 5.6 g/dL
  gamma-GTP: 1.2 IU/L
100 mg/kg, 3 h, dose level Low
  TERMINAL_BW: 207.2 g
  APTT: 16.8 s
  Bas: 0%
  Eos: 1%
  Fbg: 209.6 mg/dL
  Hb: 14 g/dL
  Ht: 42.1%
  Lym: 80.8%
  MCH: 21.8 pg
  MCHC: 33.4%
  MCV: 65.2 fL
  Mono: 7.2%
  Neu: 11.6%
  PT: 11.3 s
  Plat: 131.9 x10_4/uL
  RBC: 644.8 x10_4/ul
  Ret: 9.1%
  WBC: 111.8 x10_2/uL
  KIDNEY_L: 1 g
  KIDNEY_R: 1 g
  KIDNEY_TOTAL: 1.9 g
  LIVER: 9.9 g
  A/G: 2.1
  ALP: 1620.8 IU/L
  ALT: 35.8 IU/L
  AST: 68 IU/L
  BUN: 12.8 mg/dL
  CRE: 0.6 mg/dL
  Ca: 10.9 mg/dL
  Cl: 102 meq/L
  DBIL: 0.008 mg/dL
  GLC: 196.8 mg/dL
  IP: 9.2 mg/dL
  K: 4.6 meq/L
  LDH: 93.2 IU/L
  Na: 140.2 meq/L
  PL: 130.2 mg/dL
  RALB: 3.7 g/dL
  TBIL: 1.4 mg/dL
  TC: 73.6 mg/dL
  TG: 56.2 mg/dL
  TP: 5.4 g/dL
  gamma-GTP: 1.4 IU/L
100 mg/kg, 6 h, dose level Low
  TERMINAL_BW: 207.8 g
  APTT: 16.4 s
  Bas: 0%
  Eos: 1%
  Fbg: 202.2 mg/dL
  Hb: 13.9 g/dL
  Ht: 41.6%
  Lym: 79.4%
  MCH: 21.6 pg
  MCHC: 33.4%
  MCV: 64.9 fL
  Mono: 8.8%
  Neu: 11.2%
  PT: 12 s
  Plat: 113.2 x10_4/uL
  RBC: 641.8 x10_4/ul
  Ret: 10.5%
  WBC: 96.2 x10_2/uL
  KIDNEY_L: 1 g
  KIDNEY_R: 1 g
  KIDNEY_TOTAL: 2 g
  LIVER: 9.2 g
  A/G: 2.3
  ALP: 1175.6 IU/L
  ALT: 35.2 IU/L
  AST: 66 IU/L
  BUN: 13 mg/dL
  CRE: 0.6 mg/dL
  Ca: 10.8 mg/dL
  Cl: 103.4 meq/L
  DBIL: 0.09 mg/dL
  GLC: 183.8 mg/dL
  IP: 10.7 mg/dL
  K: 4.8 meq/L
  LDH: 90.6 IU/L
  Na: 140.2 meq/L
  PL: 126 mg/dL
  RALB: 3.7 g/dL
  TBIL: 1.2 mg/dL
  TC: 70.8 mg/dL
  TG: 41.4 mg/dL
  TP: 5.3 g/dL
  gamma-GTP: 1.8 IU/L
100 mg/kg, 9 h, dose level Low
  TERMINAL_BW: 207.3 g
  APTT: 17 s
  Bas: 0%
  Eos: 1%
  Fbg: 218.2 mg/dL
  Hb: 13.5 g/dL
  Ht: 40.3%
  Lym: 70%
  MCH: 22 pg
  MCHC: 33.6%
  MCV: 65.4 fL
  Mono: 8.8%
  Neu: 20%
  PT: 11.7 s
  Plat: 125.1 x10_4/uL
  RBC: 617 x10_4/ul
  Ret: 8.5%
  WBC: 105.7 x10_2/uL
  KIDNEY_L: 0.9 g
  KIDNEY_R: 1 g
  KIDNEY_TOTAL: 1.9 g
  LIVER: 8.6 g
  A/G: 2.1
  ALP: 1541.8 IU/L
  ALT: 29 IU/L
  AST: 58.2 IU/L
  BUN: 11.6 mg/dL
  CRE: 0.6 mg/dL
  Ca: 10.6 mg/dL
  Cl: 104.4 meq/L
  DBIL: 0.034 mg/dL
  GLC: 189 mg/dL
  IP: 9.8 mg/dL
  K: 4.4 meq/L
  LDH: 90.2 IU/L
  Na: 142.8 meq/L
  PL: 127.2 mg/dL
  RALB: 3.8 g/dL
  TBIL: 1 mg/dL
  TC: 75.4 mg/dL
  TG: 34.2 mg/dL
  TP: 5.6 g/dL
  gamma-GTP: 1.2 IU/L
[5]
  TERMINAL_BW: 225.9 g
  APTT: 17.2 s
  Bas: 0%
  Eos: 1%
  Fbg: 209.8 mg/dL
  Hb: 13.4 g/dL
  Ht: 40.2%
  Lym: 73%
  MCH: 21.6 pg
  MCHC: 33.3%
  MCV: 64.9 fL
  Mono: 11.6%
  Neu: 14.4%
  PT: 11.8 s
  Plat: 115.2 x10_4/uL
  RBC: 619 x10_4/ul
  Ret: 7.9%
  WBC: 109.4 x10_2/uL
  KIDNEY_L: 1.1 g
  KIDNEY_R: 1.1 g
  KIDNEY_TOTAL: 2.2 g
  LIVER: 11.5 g
  A/G: 2.1
  ALP: 1133.2 IU/L
  ALT: 39.6 IU/L
  AST: 62.8 IU/L
  BUN: 16.8 mg/dL
  CRE: 0.6 mg/dL
  Ca: 11.3 mg/dL
  Cl: 104.2 meq/L
  DBIL: 0.024 mg/dL
  GLC: 204.8 mg/dL
  IP: 8 mg/dL
  K: 4.6 meq/L
  LDH: 127.8 IU/L
  Na: 141.2 meq/L
  PL: 147 mg/dL
  RALB: 3.7 g/dL
  TBIL: 0.4 mg/dL
  TC: 74.2 mg/dL
  TG: 86.4 mg/dL
  TP: 5.5 g/dL
  gamma-GTP: 1.2 IU/L
